# From US7405303B2, “Substituted quinoline compounds for use as selective estrogen receptor modulator” (SmithKline Beecham Corporation, priority 2004, dated 2008)
# Like-named read-outs stand apart in the source and are kept apart here.
# How the values were obtained:
# [1] = target: T1, GST-hERα (ligand binding domain) (Homo sapiens, UniProt P03372); experiment: SPA competition binding assay, ERα; details: for Ki: read-out: Avg. ER α pKi (converted); for Avg. ER α pKi: SPA competition binding vs 1 nM [3H]estradiol, apparent Ki, n = 2
# T1 construct: made in house; host or cells: E. coli BL21 (DE3)pLYS S
# T1 sequence (P03372 311-547 limits assumed): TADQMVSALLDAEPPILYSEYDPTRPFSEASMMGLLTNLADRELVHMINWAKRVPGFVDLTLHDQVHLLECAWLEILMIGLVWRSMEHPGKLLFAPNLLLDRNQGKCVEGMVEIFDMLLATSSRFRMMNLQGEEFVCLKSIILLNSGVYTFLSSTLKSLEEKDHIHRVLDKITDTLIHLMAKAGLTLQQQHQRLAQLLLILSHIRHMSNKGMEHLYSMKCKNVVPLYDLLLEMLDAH
# Description: (§1) The ligand binding domain of both ERα and ERβ were sub-cloned into pGEX-2T vector which had been modified to contain KpnI and BamHI restriction sites in the multiple cloning region. GST-hERα and GST-hERβ proteins were made by transforming BL21 (DE3)pLYS S competent cells with the appropriate expression plasmid. […] The cells were collected by centrifugation and resuspended in lysis buffer (50 mM Tris pH 7.9; 250 mM KCl; 1% Triton X-100; 10 mM DTT; 1 mM PMSF). The lysate was then placed on dry ice until completely frozen The frozen lysate was thawed and centrifuged 20 min at 4° C. at 80K rpm in a TLA 100.2 rotor in a Beckman TL-100 ultracentrifuge. The supernatant was retained and glycerol was added to a final concentration of 10%. The protein content of the supernatant was quantitated using the BioRad Protein Assay Reagent. The protein was then stored at −80° C. until used in the binding assay.
# (§2) Polylysine coated Yttrium Silicate SPA beads (Amersham #RPNQ 0010) are resuspended in assay buffer [10 mM potassium phosphate buffer pH 7.0 containing 2 mM EDTA, 50 mM NaCl, 1 mM DTT, 2 mM CHAPS, 10% glycerol] to a concentration of 1 g/60 ml. 30 ul (0.5 mg) of the SPA beads are then added to each well of a Packard OptiPlate (Packard 6005190, Packard Instruments, Meriden, Conn.). […] [2,4,6,7,16,17-3H(N)]-Estradiol is added as a 30 ul aliquot to give a final assay concentration of 1 nM. […] The plates are shaken vigorously for two hours then counted on a Packard TopCount using the protocol for counting tritium yttrium silicate SPA beads. Data analysis was done by standard methods. % Bound was calculated for each concentration of each test compound using the equation % Bound=100*((Test−NS)/(T−NS)). % Bound was plotted vs concentration and curve fitting was accomplished using non-linear regression.
# [2] = target: T2, GST-hERβ (ligand binding domain) (Homo sapiens, UniProt Q92731); experiment: SPA competition binding assay, ERβ; details: for Avg. ER β pKi: SPA competition binding vs 1 nM [3H]estradiol, apparent Ki, n = 2
# T2 construct: made in house; host or cells: E. coli BL21 (DE3)pLYS S
# T2 sequence (Q92731 264-498 limits assumed): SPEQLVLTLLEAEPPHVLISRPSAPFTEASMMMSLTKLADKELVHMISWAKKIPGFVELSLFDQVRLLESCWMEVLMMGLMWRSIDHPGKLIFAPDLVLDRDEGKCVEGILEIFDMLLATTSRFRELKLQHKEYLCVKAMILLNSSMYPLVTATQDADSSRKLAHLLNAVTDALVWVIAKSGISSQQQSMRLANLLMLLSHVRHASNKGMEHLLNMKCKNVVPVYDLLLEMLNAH
# Description: as §1, with “The lysate was then placed on dry ice until completely frozen The frozen lysate was thawed and centrifuged 20 min at 4° C. at 80K rpm in a TLA 100.2 rotor in a Beckman TL-100 ultracentrifuge.” left out
# as §2, with “ml.” for “ml. 30 ul (0.5 mg) of the SPA beads are then added to each well of a Packard OptiPlate (Packard 6005190, Packard Instruments, Meriden, Conn.).”
Molecule,Ki [1],Ki ([2]; read-out: Avg. ER β pKi (converted)),Avg. ER α pKi [1],Avg. ER β pKi [2],Ki [2]
"CCc1nc2cc(O)ccc2c(Sc2ccc(/C=C/C(N)=O)cc2)c1-c1ccccc1 [Example 11, 4-[(7-Hydroxy-2-ethyl-3-phenyl-4-quinolinyl)thiophenyl]-2-propenoamide]",3160 nM,1820 nM,,,
4-[(7-Hydroxy-2-ethyl-3-(3-trifluoromethylphenyl)-4-quinolinyl)oxyphenyl]-2-propenoic acid [Example 8],,,7.05,6.57,
4-[(7-Hydroxy-2-phenyl-3-phenyl-4-quinolinyl)oxyphenyl]-2-propenoic acid [Example 9],,,5.53,6.17,
"4-[(7-Hydroxy-2-ethyl-3-phenyl-4-quinolinyl)oxyphenyl]-2-propeno-N,N-dimethylamide [Example 4]",,,7.95,7.74,
4-[(7-Hydroxy-2-ethyl-3-phenyl-4-quinolinyl)oxyphenyl]-2-propeno-N-isopropylamide [Example 3],,,8.01,7.76,
4-[(7-Hydroxy-2-ethyl-3-phenyl-4-quinolinyl)oxyphenyl]-2-propenonitrile [Example 6],,,7.59,7.50,
"CCc1nc2cc(O)ccc2c(Oc2ccc(/C=C/C(N)=O)cc2)c1-c1ccccc1 [Example 2, 4-[(7-Hydroxy-2-ethyl-3-phenyl-4-quinolinyl)oxyphenyl]-2-propenoamide]",14.8 nM,,,,28.2 nM
4-[(7-Hydroxy-2-ethyl-3-phenyl-4-quinolinyl)oxyphenyl]-2-propeno-N-piperidineamide [Example 5],,,7.55,7.64,
"CCc1nc2cc(O)ccc2c(Oc2cccc(/C=C/C(=O)O)c2)c1-c1ccccc1 [Example 10, 3-[(7-Hydroxy-2-ethyl-3-phenyl-4-quinolinyl)oxyphenyl]-2-propenoic acid]",1550 nM,,,,
4-[(7-Hydroxy-2-ethyl-3-(3-trifluoromethylphenyl]-4-quinolinyl)oxyphenyl]-2-propeno-N-isopropylamide [Example 7],,,7.51,7.26,
